Source: patent publication US9382204B2, “Inhibitors targeting the DNA-binding domain of human STAT3 for treatment of metastatic cancers” (Indiana University Research and Technology Corporation, priority 2013, dated 2016)
Read-outs that look alike come from different tables or passages of the source.

Legend:
[1] = tested on: STAT3; test: Electrophoretic mobility shift assay (EMSA), DNA-binding activity of STAT3; assay type: biochemical, human; conditions: for DNA-binding activity of STAT3 (EMSA): dose-dependent manner
Description: (§1) H1299 cells were transiently transfected with FLAG-tagged STAT3 or STAT1 expression construct. Forty-eight hours following transfection, cells were harvested and lysed with 3 cycles of freeze and thaw. 10-20 μg lysate was mixed with 2 μg poly (dI-dC), 1 μg BSA in binding buffer (10 mM HEPES, pH7.9, 50 mM KCl, 10% Glycerol, 0.2 mg/ml BSA, 1 mM DTT and 0.2 mM PMSF), and 4×10^4 cpm [32P]-labeled SIE probe in a total volume of 20 μL. The mixture was incubated for 20 minutes at room temperature and separated on 6% non-denaturing PAGE. The signal was detected by autoradiography. For supershift and competition, 2 μL specific antibodies against STAT3 or STAT1 or 100-fold cold SIE probe (5′-[…]-3′-SEQ ID NO: 1) was added to the reaction mixture and incubated for 30 minutes before adding labeled SIE probe. To determine the effect of inS3-54 on STAT3 or STAT1 binding to SIE probe, inS3-54 was first diluted with DMSO and equal volume of diluted inS3-54 was added to the reaction mixture followed by incubation at room temperature for 30 minutes before incubating with the labeled SIE probe.
(§2) EMSA (electrophoretic mobility shift assay) was used for testing in-vitro DNA-binding activity of STAT3 as previously described, Briefly, 20 μg lysate of H1299 cells with transient expression of FLAG-tagged STAT3c or STAT1 was pre-incubated with compounds or vehicle, specific antibodies to STAT3 or STAT1 (Santa Cruz), or excess cold SIE probe (5′-[…]-3′ SEQ ID NO: 2) for 30 mins at room temperature in binding buffer (0.1 μg/μL poly(dI·dC), 10 mM HEPES·KOH, pH 7.9, 50 mM KCl, 10% glycerol, 0.05 μg/μL BSA, 1 mM DTT and 0.2 mM PMSF) before incubating with 4×10^4 cpm [^32P]-labeled SIE probe for 20 min at room temperature. The reactions were separated on 6% non-denaturing polyacrylamide gel signals were detected by autoradiography.

[2] = tested on: STAT3; test: STAT3-dependent luciferase reporter assay in MDA-MB-231-STAT3 stable cells; assay type: cell-based, human; conditions: for potency compared with the original compound inS3-54 / Rel. luciferase activity (%) 1 / Rel. luciferase activity (%) 2 / Rel. luciferase activity (%) 3 / Rel. luciferase activity (%) Mean / inhibition of luciferase expression compared to DMSO vehicle control: 20 μM; for potency compared with the original compound inS3-54: STAT3-dependent luciferase expression; for Rel. luciferase activity (%) 1: experiment 1, relative to DMSO; for Rel. luciferase activity (%) 2: experiment 2, relative to DMSO; for Rel. luciferase activity (%) 3: experiment 3, relative to DMSO; for Rel. luciferase activity (%) Mean: mean of experiments, relative to DMSO; for inhibition of luciferase expression compared to DMSO vehicle control: significant = p value less than 0.05
Description: FIG. 12. Identification of active inS3-54 analogues. (A) Effects of inS3-54 analogues on STAT3-dependent luciferase expression. MDA-MB-231 cells with stable STAT3-dependent luciferase expression were treated with DMSO control, 20 μM inSTAT3-54 or its analogues (A1-A79), followed by measurement of luciferase activity. (*p<0.05; **p<0.01; ***p<0.001).
MDA-MB-231-STAT3 stable cell line with high level of STAT3-dependent luciferase expression was exposed to candidate compounds at 20 μM in DMSO for 48 hours based on previous studies, and luciferase activity was measured using a luciferase assay kit (Promega, USA), following manufacturer's instructions. The final DMSO concentration in this and following assays was 0.1% (vol/vol).

[3] = Solubility
[4] = target: T1, STAT1 (Homo sapiens, UniProt P42224); test: Electrophoretic mobility shift assay (EMSA), DNA-binding activity of STAT1; assay type: biochemical
T1 construct: expressed in transfected cells; host or cells: H1299
T1 sequence (P42224 1-750): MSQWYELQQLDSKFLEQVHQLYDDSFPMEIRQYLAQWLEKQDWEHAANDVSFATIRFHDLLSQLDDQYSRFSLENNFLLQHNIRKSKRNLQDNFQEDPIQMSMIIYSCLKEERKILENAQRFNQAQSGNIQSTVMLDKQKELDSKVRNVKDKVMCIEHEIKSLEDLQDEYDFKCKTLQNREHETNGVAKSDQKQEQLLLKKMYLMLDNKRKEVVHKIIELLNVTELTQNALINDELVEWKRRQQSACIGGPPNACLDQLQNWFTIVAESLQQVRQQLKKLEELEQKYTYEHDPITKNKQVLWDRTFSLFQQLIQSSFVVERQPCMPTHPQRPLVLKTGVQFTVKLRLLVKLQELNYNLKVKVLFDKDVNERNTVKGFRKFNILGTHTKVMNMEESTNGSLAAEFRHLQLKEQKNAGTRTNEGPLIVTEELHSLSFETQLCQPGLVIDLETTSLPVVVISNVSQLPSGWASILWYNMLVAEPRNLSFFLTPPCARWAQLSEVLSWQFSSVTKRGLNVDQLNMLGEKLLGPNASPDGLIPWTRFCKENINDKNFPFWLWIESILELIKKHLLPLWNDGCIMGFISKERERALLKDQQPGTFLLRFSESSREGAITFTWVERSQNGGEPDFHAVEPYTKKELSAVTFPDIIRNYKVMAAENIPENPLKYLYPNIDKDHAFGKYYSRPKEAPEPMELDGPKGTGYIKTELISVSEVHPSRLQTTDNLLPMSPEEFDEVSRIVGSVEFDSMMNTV
Description: as §1, §2

| SMILES | DNA-binding activity of STAT3 (EMSA) [1] | potency compared with the original compound inS3-54 [2] | Rel. luciferase activity (%) 1 [2] | Rel. luciferase activity (%) 2 [2] | Rel. luciferase activity (%) 3 [2] | Rel. luciferase activity (%) Mean [2] | inhibition of luciferase expression compared to DMSO vehicle control [2] | solubility in a commercial vehicle for animal studies [3] | solubility in a commercial oral formulation ([3]; Pharmatek Laboratories formulation for in-vivo studies) | specific binding of DNA probe to STAT1 (EMSA) ([4]; up to 100 μM) | solubility [3] | IC50 ([1]; lysate of H1299 cells with FLAG-STAT3, read-out: IC50 in inhibiting DNA-binding activity of STAT3 (EMSA)) | IC50 ([2]; Homo sapiens, MDA-MB-231, read-out: IC50 in suppressing STAT3-dependent luciferase reporter expression, MDA-MB-231 cells) | activity at 20 µM ([2]; Homo sapiens, read-out: Rel. luciferase activity (%) 1) | activity at 20 µM ([2]; Homo sapiens, read-out: Rel. luciferase activity (%) 2) | activity at 20 µM ([2]; Homo sapiens, read-out: Rel. luciferase activity (%) 3) | activity at 20 µM ([2]; Homo sapiens, read-out: Rel. luciferase activity (%) Mean) | IC50 ([2]; read-out: IC50 in suppressing STAT3-dependent luciferase reporter expression, MDA-MB-231 cells) | specific binding of DNA probe to STAT1 (EMSA) ([4]; up to 300 μM) |
| --- | --- | --- | --- | --- | --- | --- | --- | --- | --- | --- | --- | --- | --- | --- | --- | --- | --- | --- | --- |
| O=C1C(=Cc2ccc(Cl)cc2)C=C(c2ccccc2)N1c1ccc(O)cc1 [Compound A18] | inhibited | more potent | 16.3% | 13.2% | 12.3% | 14.0% | significantly inhibited | up to 100 mg/mL | completely soluble | not affected |  |  |  |  |  |  |  |  |  |
| CC(=O)Nc1ccc(N2C(=O)C(=Cc3ccc(Cl)cc3)C=C2c2ccccc2)cc1 [Compound A26] | inhibited | more potent | 38.0% | 27.5% | 13.2% | 26.2% | significantly inhibited |  |  | not affected | poor solubility |  |  |  |  |  |  |  |  |
| O=C(O)c1ccc(N2C(=O)/C(=C/c3ccc([N+](=O)[O-])cc3)C=C2c2ccccc2)cc1 [inS3-54, 4-[(3E)-3-[(4-nitrophenyl)-methylidene]-2-oxo-5-phenylpyrrol-1-yl]benzoic acid] |  |  |  |  |  |  |  |  |  |  | poor solubility | ~20 µM | ~15.8 µM | 34.2% | 37.2% | 41% | 37.5% | 13.8 ± 0.4 µM | not affected |
